Reference: publication PMC10620212, “Postprandial glycemic and lipidemic effects of black rice anthocyanin extract fortification in foods of varying macronutrient compositions and matrices” (NPJ Science of Food, 2023)

Tests used:
[1] = target: α-glucosidase; assay: In-vitro starch hydrolase inhibition (starch turbidity assay), α-glucosidase; assay type: biochemical; conditions: mean (SD)
Protocol: (§1) To determine the inhibitor activities of major ACN species, 50 μL of enzyme solution was mixed with 50 μL of inhibitor solution of different concentrations and incubated for 15 min at 37 °C. The reaction was initiated by mixing 100 μL of 1% gelatinized wheat starch solution into the enzyme-inhibitor mixtures. Changes in turbidity were immediately monitored at 660 nm for 2 h in a microplate reader preincubated at 37 °C, with one reading per minute, while shaking in between readings to minimize starch sedimentation. Enzyme activities were inversely proportional to the AUC for turbidity readings. The percentage inhibition (%I) was defined as:7 %I=(AUCSample−AUCControl)/AUCSample×100 in which AUCSample is the area under the curve for the inhibitor, and AUCControl is the area under the curve without inhibitors.

[2] = target: T1, α-amylase (Sus scrofa, UniProt P00690); assay: In-vitro starch hydrolase inhibition (starch turbidity assay), α-amylase; assay type: biochemical, porcine; conditions: mean (SD)
T1 sequence (P00690 16-511): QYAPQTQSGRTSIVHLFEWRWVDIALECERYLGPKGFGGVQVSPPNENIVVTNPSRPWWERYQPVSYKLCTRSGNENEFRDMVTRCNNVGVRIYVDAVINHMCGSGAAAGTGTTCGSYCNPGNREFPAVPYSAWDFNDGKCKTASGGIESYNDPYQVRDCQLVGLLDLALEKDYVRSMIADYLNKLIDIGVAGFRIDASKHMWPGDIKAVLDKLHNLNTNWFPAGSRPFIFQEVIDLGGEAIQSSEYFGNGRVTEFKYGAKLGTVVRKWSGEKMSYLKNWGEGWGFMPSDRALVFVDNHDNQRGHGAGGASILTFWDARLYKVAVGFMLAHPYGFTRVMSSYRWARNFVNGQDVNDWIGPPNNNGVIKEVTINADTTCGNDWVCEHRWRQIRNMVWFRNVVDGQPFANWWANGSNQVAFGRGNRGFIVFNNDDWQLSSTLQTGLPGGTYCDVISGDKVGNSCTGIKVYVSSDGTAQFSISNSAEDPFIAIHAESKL
Protocol: as §1

[3] = parameters: method as in PMID 24602005, PMID 25347327; conditions: previous reports; cited from earlier work
[4] = Bread trial: plasma bioavailability of anthocyanins and phenolic metabolites; assay type: in vivo, human; conditions: for change in plasma concentration, mean difference between 60 and 120 min: 4-BB group
Protocol: Bioavailability analysis was performed in the Bread trial according to the methods by Kay, et al.[58]. […] The sample was drained off in a vacuum manifold and washed with 2 volumes of acidified water. The remaining ACN extract was eluted with 6 mL acidified methanol, and subsequently brought to dryness at 25 °C under a continuous stream of nitrogen gas. The residue was dissolved in 200 μL of 0.1% v/v formic acid and filtered through a 13 mm 0.22 μm PTFE hydrophilic syringe filter. The resulting solution was analyzed using a reverse-phased C18 Sunfire column (250 × 4.6 mm/5 μm; Waters, Wexford, Ireland) on an HPLC system (Shimadzu Prominence, Shimadzu, Kyoto, Japan) connected with a DAD. The injection volume was 50 μL. The flow rate and oven temperature were maintained at 1 mL/min at 25 °C. A gradient elution process was applied (mobile phase A: 5% v/v formic acid; mobile phase B: 100% acetonitrile): 0% B for 5 min, 10% B at 20 min, 13% B at 40 min, 20% B at 44 min, 25% B at 50 min, and 100% B at 55 min. Detection of ACNs was performed at 520 nm; while its metabolites, ferulic acid, vanillic acid, and protocatechuic acid were detected at 280 nm. Identification and quantification of each ACN and metabolite were based on matching the retention time and peak areas with the external calibration curve of respective standards.

IC50 [1] [µM] | IC50 [2] [µM] | share of total polyphenols in plasma at 60 min peak concentrations ([4]; Bread trial) [%] | Structure (SMILES) | time of peak plasma concentrations [3] [h] | change in plasma concentration, mean difference between 60 and 120 min [4]
1120 | 364 | – | OC[C@H]1O[C@@H](Oc2cc3c(O)cc(O)cc3[o+]c2-c2ccc(O)c(O)c2)[C@H](O)[C@@H](O)[C@@H]1O [C3G, cyanidin-3-glucoside] | – | –
904 | 483 | – | C[C@@H]1O[C@@H](OC[C@H]2O[C@@H](Oc3cc4c(O)cc(O)cc4[o+]c3-c3ccc(O)c(O)c3)[C@H](O)[C@@H](O)[C@@H]2O)[C@H](O)[C@H](O)[C@H]1O [C3R, cyanidin-3-rutinoside] | – | –
– | – | – | COc1cc(/C=C/C(=O)O)ccc1O [FA, ferulic acid] | 0.5 to 1 | 1.08
1340 | 649 | – | COc1cc(-c2[o+]c3cc(O)cc(O)c3cc2O[C@@H]2O[C@H](CO)[C@@H](O)[C@H](O)[C@H]2O)ccc1O [P3G, peonidin-3-glucoside] | – | –
– | – | 93.9 | O=C(O)c1ccc(O)c(O)c1 [PCA, protocatechuic acid] | 1 to 2 | –
– | – | – | COc1cc(C(=O)O)ccc1O [VA, vanillic acid] | 0.5 to 1 | 0.439
